Earlier results as cited in patent US20180146647A1, “MEDETOMIDINE FOR USE IN CONTROLLING PARASITIC CRUSTACEANS ON FISH” (I-Tech AB, priority 2015, published 2018).

Assays:
α2-adrenoceptor = settings: given to mammals and fish; Sinclair, 2003; Ruuskanen et al., 2005
algae = settings: target protein lacking within algae
cyprid larvae = settings: medetomidine 10 nM; Mol Pharmacol 78:237-248, 2010

## Cc1cccc(C(C)c2c[nH]cn2)c1C (racemic) [Medetomidine, (±) 4-[1-(2,3-Dimethylphenyl)ethyl]-1H-imidazole]
α2-adrenoceptor
  physiological effect in vertebrates: sedation and locomotor inhibition
algae
  effect on algal growth: no effect on algal growth
Cyprid larvae
  kicking of the cyprid larvae: more than 100 kicks per minute
